The source of these data is patent US8809328B2, “Imidazole derivative” (National University Corporation Shizuoka University, priority 2011, dated 2014).

Experiment [1] concerns rice (Nipponbare) (Oryza sativa L. cv. Nipponbare). Description: Influence of AHX or AOH on rice seedlings in test tube culture fluid (Example 6). Type of experiment: in vivo. The conditions noted are these: 50, 200 or 1000 μM in culture fluid, 28° C., one week, FIG. 4. As for the experimental part:
Sterilized seeds of rice (Nipponbare) (Oryza sativa L. cv. Nipponbare) were allowed to sprout at 28° C. in three days. The sprouted seeds (four seeds per test tube) were cultivated in a test tube, in which a control culture fluid or a culture fluid to which AHX or AOH was added to different concentrations and was placed, at 28° C. for a week. AOH that was produced according to the method of Example 5 was used. The control culture fluid comprises 0.5 mM of NH4NO3, 0.3 mM of Na2HPO4, 0.15 mM of K2SO4, 0.2 mM of MgCl2, 0.1 mM of CaCl2, 23 μM of Fe-ethylenediaminetetraacetic acid (Fe-EDTA), 25 μM of H3BO3, 4.5 μM of MnSO4, 0.15 μM of CuSO4, 0.35 μM of ZnSO4, and 0.05 μM of Na2MoO4. As for the culture fluids containing AHX or AOH, AHX or AOH is added to the above described control culture fluids such that the final concentration becomes 50 μM, 200 μM or 1000 μM. The culture fluid was replaced with new culture fluid every other day. After cultivation, the length of shoots and roots was measured.

Experiment [2] has the same test system. Description: Influence of AOH and 3-methyl-AOH on rice seedlings in test tube culture fluid (Example 12). The conditions noted are these: 0.2 mM in culture fluid, 28° C., one week, FIG. 8. The experiment is classed as in vivo. As for the experimental part:
Sterilized seeds of rice (Nipponbare) (Oryza sativa L. cv. Nipponbare) were allowed to sprout at 28° C. in three days. The sprouted seeds (four seeds per test tube) were cultivated in a test tube, in which a control culture fluid, a culture fluid to which 0.2 mM of AOH was added, or a culture fluid to which 0.2 mM of 3-methyl-AOH was added and was placed, at 28° C. for a week. The control culture fluid comprises 0.5 mM of NH4NO3, 0.3 mM of Na2HPO4, 0.15 mM of K2SO4, 0.2 mM of MgCl2, 0.1 mM of CaCl2, 23 μM of Fe-ethylenediaminetetraacetic acid (Fe-EDTA), 25 μM of H3BO3, 4.5 μM of MnSO4, 0.15 μM of CuSO4, 0.35 μM of ZnSO4, and 0.05 μM of Na2MoO4. The culture fluid was replaced with new culture fluid every other day. After cultivation, the length of shoots and roots was measured. […] (In FIG. 8, “*” indicates P value <0.05, and “**” indicates P value <0.01. n=16.). In contrast, 3-methyl-AOH gave no influence on extension of the shoots.

Turning to `O=c1[nH]c2nn[nH]c(=O)c2[nH]1` [AOH, 3H-imidazo[4,5-d][1,2,3]triazin-4,6(5H,7H)-dione], the “Extension of shoots and roots” value in experiment [1] was “promoted extension of shoots and roots concentration-dependently”. Also, in experiment [2], the Extension of roots entry was “had extension activity for roots”.
